# Positions of bridges follow the written chain, without caps; N, C: chain ends. Non-standard residues stand in square brackets, D forms with d. Residues, ends and D or L forms follow the SMILES beside them. Groups on a side chain read outwards from the residue. *: point of attachment. Palmitoyl(16-(5-tetrazolyl)) = O=C(CCCCCCCCCCCCCCCc1nnn[nH]1)*; Lys(CH2CO2H)2 = N[C@@H](CCCCN(CC(=O)O)CC(=O)O)C(=O)O; X1 = O=C(O)CCCCCCCCCCCCCCCCC(=O)NCCOCCOCCN*; C17 diacid = O=C(O)CCCCCCCCCCCCCCCC(=O)*; C16 diacid = O=C(O)CCCCCCCCCCCCCCC(=O)*; C14 diacid = O=C(O)CCCCCCCCCCCCC(=O)*; NTA = O=C(O)CN(CC(=O)O)CC(=O)*; hCys = N[C@@H](CCS)C(=O)O; Orn = NCCC[C@H](N)C(=O)O; Dab = NCC[C@H](N)C(=O)O; Dap = NC[C@H](N)C(=O)O; AEEA = NCCOCCOCC(=O)O
# What was measured:
# physchem = test: physchem
# Description: From a stock solution in vehicle, either H2O or 10 mM phosphate, containing 1 mg (as weighed) compound per ml, 8-11 aliquots are withdrawn and pH-adjusted individually with HCl/NaOH, to cover the whole pH range.
# MC1 receptor = MC1 receptor (Homo sapiens, UniProt Q01726); test: biochemical
# Sequence of MC1 receptor (Q01726 whole entry): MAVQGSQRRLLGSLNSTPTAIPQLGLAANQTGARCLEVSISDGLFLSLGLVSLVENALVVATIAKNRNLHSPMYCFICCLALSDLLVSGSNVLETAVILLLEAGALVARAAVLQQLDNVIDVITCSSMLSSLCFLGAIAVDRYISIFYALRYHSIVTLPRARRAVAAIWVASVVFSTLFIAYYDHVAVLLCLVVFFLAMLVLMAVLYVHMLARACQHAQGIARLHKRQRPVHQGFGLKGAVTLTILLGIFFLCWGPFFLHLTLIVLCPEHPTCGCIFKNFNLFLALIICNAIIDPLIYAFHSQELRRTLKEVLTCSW
# Description: Assay (IV)—Melanocortin Receptor 1 (MC1) Binding Assay
# The MC1 receptor binding assay was performed on BHK cell membranes stably expressing the MC1 receptor. The assay was performed in a total volume of 250 μl: 25 μl of ^125NDP-α-MSH (22 pM in final concentration), 25 μl of test compound/control and 200 μl of cell membrane (25 μg/ml). Test compounds were dissolved in DMSO. Radioactively labeled ligand, membranes and test compounds were diluted in buffer: 25 mM HEPES, pH 7.4, 0.1 mM CaCl2, 1 mM MgSO4, 1 mM EDTA, 0.1% HSA and 0.005% Tween™ 20. Alternatively, HSA may be substituted with ovalbumin. The samples were incubated at 30° C. for 90 min. in Costar round-bottom microtiter plates. Incubation was terminated by filtration on a Packard harvester filtermate. Rapid filtration through Packard Unifilter-96 GF/B filters pre-treated with polyetylenimine (PerkinElmer 6005277). The filters were washed with ice-cold 0.9% NaCl 8-10 times. The plates were air-dried at app. 55° C. for 30 min, and 50 μl Microscint 0 (Packard, cat. No. 6013616) was added to each well. The plates were counted in a Topcounter (1 min/well).
# The data were analysed by non-linear regression analysis of binding curves, using the Windows™ program GraphPad™ Prism (GraphPad Software, USA).
compound,measurement,setting,value
"CC(=O)N[C@H]1CCCCNC(=O)CC[C@@H](C(=O)N2CCC[C@H]2C(=O)N2CCC[C@H]2C(=O)N[C@@H](Cc2c[nH]cn2)C(=O)N[C@@H](CCC(=O)O)C(=O)N[C@@H](CCCCN(CC(=O)O)CC(=O)O)C(=O)N[C@@H](CCCCNC(=O)COCCOCCNC(=O)CCCCCCCCCCCCCCCC(=O)O)C(N)=O)NC(=O)[C@H](Cc2c[nH]c3ccccc23)NC(=O)[C@H](CCCNC(=N)N)NC(=O)[C@@H](Cc2ccccc2)NC(=O)[C@H](Cc2c[nH]cn2)NC1=O [Example 7, Ac-c[Lys-His-D-Phe-Arg-Trp-Glu]-Pro-Pro-His-Glu-Lys(biscarboxymethyl)-Lys({2-[2-(16-carboxyhexadecanoylamino)ethoxy]ethoxy}acetyl)-NH2] (Ac-KH[dF]RWEPPHE[Lys(CH2CO2H)2]K([AEEA-C17 diacid])-NH2; lactam 1-6)",solubility,"physchem; pH 5.8, Solubility Conc.",121 µM
same,solubility,"physchem; pH 6.3, Solubility Conc.",173 µM
same,solubility,"physchem; pH 6.6, Solubility Conc.",295 µM
same,solubility,"physchem; pH 6.7, Solubility Conc.",408 µM
same,solubility,"physchem; pH 6.9, Solubility Conc.",434 µM
same,solubility,"physchem; pH 7.2, Solubility Conc.",417 µM
same,solubility,"physchem; pH 7.4, Solubility Conc.",438 µM
same,solubility,"physchem; pH 7.6, Solubility Conc.",448 µM
same,solubility,"physchem; pH 8, Solubility Conc.",436 µM
same,Ki,MC1 receptor,> 10 µM
"CC(=O)N[C@H]1CCNC(=O)C[C@@H](C(=O)N2CCC[C@H]2C(=O)N2CCC[C@H]2C(=O)N[C@@H](CCCNC(=N)N)C(=O)N[C@@H](CCC(=O)O)C(=O)N[C@@H](CCCCN(CC(=O)O)CC(=O)O)C(=O)N[C@@H](CO)C(=O)N[C@@H](CO)C(=O)NCCOCCOCCNC(=O)CCCCCCCCCCCCCCCCC(=O)O)NC(=O)[C@H](Cc2c[nH]c3ccccc23)NC(=O)[C@H](CCCNC(=N)N)NC(=O)[C@@H](Cc2ccccc2)NC(=O)[C@H](Cc2c[nH]cn2)NC1=O [Example 9, Ac-c[Dab-His-D-Phe-Arg-Trp-Asp]-Pro-Pro-Arg-Glu-Lys(biscarboxymethyl)-Ser-Ser-NH(2-{2-[2-(17-carboxyheptadecanoylamino)ethoxy]ethoxy}ethyl)] (Ac-[Dab]H[dF]RWDPPRE[Lys(CH2CO2H)2]SS-X1; lactam 1-6)",solubility,"physchem; pH 4.7, Solubility Conc.",26 µM
same,solubility,"physchem; pH 5.2, Solubility Conc.",22 µM
same,solubility,"physchem; pH 5.3, Solubility Conc.",40 µM
same,solubility,"physchem; pH 6.6, Solubility Conc.",79 µM
same,solubility,"physchem; pH 7.3, Solubility Conc.",158 µM
same,solubility,"physchem; pH 7.4, Solubility Conc.",183 µM
same,solubility,"physchem; pH 7.7, Solubility Conc.",242 µM
same,solubility,"physchem; pH 7.9, Solubility Conc.",259 µM
same,solubility,"physchem; pH 8.2, Solubility Conc.",280 µM
same,Ki,MC1 receptor,> 10 µM
"CC(=O)N[C@H]1CCCNC(=O)C[C@@H](C(=O)N2CCC[C@H]2C(=O)N2CCC[C@H]2C(=O)N[C@@H](Cc2c[nH]cn2)C(=O)N[C@@H](CCC(=O)O)C(=O)N[C@@H](CCCCN(CC(=O)O)CC(=O)O)C(=O)N[C@@H](CCCCNC(=O)COCCOCCNC(=O)CCCCCCCCCCCCCCCc2nnn[nH]2)C(N)=O)NC(=O)[C@H](Cc2c[nH]c3ccccc23)NC(=O)[C@H](CCCNC(=N)N)NC(=O)[C@@H](Cc2ccccc2)NC(=O)[C@H](Cc2c[nH]cn2)NC1=O [Example 10, Ac-c[Orn-His-D-Phe-Arg-Trp-Asp]-Pro-Pro-His-Glu-Lys(biscarboxymethyl)-Lys[(2-{2-[16-(tetrazol-5-yl)hexadecanoylamino]ethoxy}ethoxy)acetyl]-NH2] (Ac-[Orn]H[dF]RWDPPHE[Lys(CH2CO2H)2]K([AEEA-Palmitoyl(16-(5-tetrazolyl))])-NH2; lactam 1-6)",solubility,"physchem; pH 6, Solubility Conc.",35 µM
same,solubility,"physchem; pH 6.4, Solubility Conc.",88 µM
same,solubility,"physchem; pH 6.6, Solubility Conc.",287 µM
same,solubility,"physchem; pH 6.7, Solubility Conc.",514 µM
same,solubility,"physchem; pH 7, Solubility Conc.",517 µM
same,solubility,"physchem; pH 7.3, Solubility Conc.",517 µM
same,solubility,"physchem; pH 7.4, Solubility Conc.",516 µM
same,solubility,"physchem; pH 7.7, Solubility Conc.",521 µM
same,solubility,"physchem; pH 8, Solubility Conc.",531 µM
same,Ki,MC1 receptor,> 10 µM
"CC(=O)N[C@H]1CCCCNC(=O)C[C@@H](C(=O)N2CCC[C@H]2C(=O)N2CCC[C@H]2C(=O)N[C@@H](CCCNC(=N)N)C(=O)N[C@@H](CC(=O)O)C(=O)N[C@@H](CCCCN(CC(=O)O)CC(=O)O)C(=O)N[C@@H](CCCCNC(=O)COCCOCCNC(=O)CCCCCCCCCCCCCCCc2nnn[nH]2)C(N)=O)NC(=O)[C@H](Cc2c[nH]c3ccccc23)NC(=O)[C@H](CCCNC(=N)N)NC(=O)[C@@H](Cc2ccccc2)NC(=O)[C@H](Cc2c[nH]cn2)NC1=O [Example 11, Ac-c[Lys-His-D-Phe-Arg-Trp-Asp]-Pro-Pro-Arg-Asp-Lys(biscarboxymethyl)-Lys[(2-{2-[16-(tetrazol-5-yl)hexadecanoylamino]ethoxy}ethoxy)acetyl]-NH2] (Ac-KH[dF]RWDPPRD[Lys(CH2CO2H)2]K([AEEA-Palmitoyl(16-(5-tetrazolyl))])-NH2; lactam 1-6)",solubility,"physchem; pH 4.8, Solubility Conc.",51 µM
same,solubility,"physchem; pH 5.3, Solubility Conc.",29 µM
same,solubility,"physchem; pH 6, Solubility Conc.",25 µM
same,solubility,"physchem; pH 6.4, Solubility Conc.",36 µM
same,solubility,"physchem; pH 7, Solubility Conc.",147 µM
same,solubility,"physchem; pH 7.2, Solubility Conc.",364 µM
same,solubility,"physchem; pH 7.3, Solubility Conc.",479 µM
same,solubility,"physchem; pH 7.6, Solubility Conc.",472 µM
same,solubility,"physchem; pH 7.8, Solubility Conc.",479 µM
same,Ki,MC1 receptor,> 10 µM
"CC(=O)N[C@H]1CCC(=O)NCCC[C@@H](C(=O)N2CCC[C@H]2C(=O)N2CCC[C@H]2C(=O)N[C@@H](CC(=O)O)C(=O)N[C@@H](CCCCN(CC(=O)O)CC(=O)O)C(=O)N[C@@H](CCCCNC(=O)COCCOCCNC(=O)CCCCCCCCCCCCCCC(=O)O)C(N)=O)NC(=O)[C@H](Cc2c[nH]c3ccccc23)NC(=O)[C@H](CCCNC(=N)N)NC(=O)[C@@H](Cc2ccccc2)NC(=O)[C@H](Cc2c[nH]cn2)NC1=O [Example 13, Ac-c[Glu-His-D-Phe-Arg-Trp-Orn]-Pro-Pro-Asp-Lys(biscarboxymethyl)-Lys({2-[2-(15-carboxypentadecanoylamino)ethoxy]ethoxy}acetyl)-NH2] (Ac-EH[dF]RW[Orn]PPD[Lys(CH2CO2H)2]K([AEEA-C16 diacid])-NH2; lactam 1-6)",solubility,"physchem; pH 5.5, Solubility Conc.",348 µM
same,solubility,"physchem; pH 5.7, Solubility Conc.",494 µM
same,solubility,"physchem; pH 6.1, Solubility Conc.",473 µM
same,solubility,"physchem; pH 6.5, Solubility Conc.",469 µM
same,solubility,"physchem; pH 6.8, Solubility Conc.",459 µM
same,solubility,"physchem; pH 7.1, Solubility Conc.",506 µM
same,solubility,"physchem; pH 7.3, Solubility Conc.",467 µM
same,solubility,"physchem; pH 7.7, Solubility Conc.",472 µM
same,solubility,"physchem; pH 7.9, Solubility Conc.",493 µM
same,Ki,MC1 receptor,> 10 µM
"CC(=O)N[C@H]1CCNC(=O)C[C@@H](C(=O)N2CCC[C@H]2C(=O)N2CCC[C@H]2C(=O)N[C@@H](CCCNC(=N)N)C(=O)N[C@@H](CCC(=O)O)C(=O)N[C@@H](CCCCN(CC(=O)O)CC(=O)O)C(=O)N[C@@H](CCCCNC(=O)COCCOCCNC(=O)CCCCCCCCCCCCCCCc2nnn[nH]2)C(N)=O)NC(=O)[C@H](Cc2c[nH]c3ccccc23)NC(=O)[C@H](CCCNC(=N)N)NC(=O)[C@@H](Cc2ccccc2)NC(=O)[C@H](Cc2c[nH]cn2)NC1=O [Example 15, Ac-c[Dab-His-D-Phe-Arg-Trp-Asp]-Pro-Pro-Arg-Glu-Lys(biscarboxymethyl)-Lys[(2-{2-[16-(tetrazol-5-yl)hexadecanoylamino]ethoxy}ethoxy)acetyl]-NH2] (Ac-[Dab]H[dF]RWDPPRE[Lys(CH2CO2H)2]K([AEEA-Palmitoyl(16-(5-tetrazolyl))])-NH2; lactam 1-6)",solubility,"physchem; pH 5, Solubility Conc.",49 µM
same,solubility,"physchem; pH 6.1, Solubility Conc.",26 µM
same,solubility,"physchem; pH 6.8, Solubility Conc.",60 µM
same,solubility,"physchem; pH 7.1, Solubility Conc.",147 µM
same,solubility,"physchem; pH 7.3, Solubility Conc.",395 µM
same,solubility,"physchem; pH 7.4, Solubility Conc.",445 µM
same,solubility,"physchem; pH 7.7, Solubility Conc.",461 µM
same,solubility,"physchem; pH 7.8, Solubility Conc.",441 µM
same,solubility,"physchem; pH 8, Solubility Conc.",417 µM
same,Ki,MC1 receptor,> 10 µM
"CC(=O)N[C@H]1CCSSC[C@@H](C(=O)N2CCC[C@H]2C(=O)N2CCC[C@H]2C(=O)N[C@@H](CCCCN)C(=O)N[C@@H](CC(=O)O)C(=O)N[C@@H](CNC(=O)CN(CC(=O)O)CC(=O)O)C(=O)N[C@@H](CCCCNC(=O)COCCOCCNC(=O)CCCCCCCCCCCCC(=O)O)C(N)=O)NC(=O)[C@H](Cc2c[nH]c3ccccc23)NC(=O)[C@H](CCCNC(=N)N)NC(=O)[C@@H](Cc2ccccc2)NC(=O)[C@H](Cc2c[nH]cn2)NC1=O [Example 69, Ac-c[homoCys-His-D-Phe-Arg-Trp-Cys]-Pro-Pro-Lys-Asp-Dap(BCMA)-Lys({2-[2-(13-carboxytridecanoylamino)ethoxy]ethoxy}acetyl)-NH2] (Ac-[hCys]H[dF]RWCPPKD[Dap](NTA)K([AEEA-C14 diacid])-NH2; disulfide 1-6)",Ki,MC1 receptor,> 10 µM

# Reference: patent publication US20130012432A1, “Peptides for Treatment of Obesity” (Novo Nordisk A/S, priority 2010, published 2013)
